Assay results from patent US12404291B2, “Antimicrobial agent” (priority 2019, dated 2025).
Values after ≈ are worked out from the molar mass of the structure shown.

Key:
[1] = system: E. coli wild type (MG1655); test: MIC and MBC determination; assay type: cell-based
Procedure: (§1) The bioactivity of these compounds was investigated with respect to the wild type K12-derivative MG1655 and uropathogenic multidrug resistant EC958 ST131 strains of E. coli. Another gram-positive bacteria, ESKAPE bacteria—the pathogenic gastrointestinal strain of Enterococcus faecalis, V583 (ATCC700802)—which is a major opportunistic pathogen (and a leading cause of urinary tract infections) was also tested with respect to the compounds. The minimum inhibitory concentration, MIC, of the four complexes was obtained in both glucose defined minimal media (GDMM) and nutrient rich Mueller-Hinton-II (MH-II) (FIG. 7).
(§2) The same parameters and conditions used above to determine MIC and MBC values with respect to compounds 1^4+ to 4^4+ were employed in order to test the MIC and MBC values of complexes 1^2+ to 4^2+.
(§3) The MIC and MBC values were determined as above.

[2] = system: E. faecalis pathogenic (V583); test: MIC and MBC determination; assay type: cell-based, Enterococcus faecalis
Procedure: as §1, §2, §3

A. baumannii biofilm = test: Biofilm activity profile (MBEC); assay type: cell-based; details: Gram-negative biofilm
P. aeruginosa biofilm = test: Biofilm activity profile (MBEC); assay type: cell-based; details: Gram-negative biofilm
K. pneumonia biofilm = test: Biofilm activity profile (MBEC); assay type: cell-based; details: Gram-negative biofilm
HPRT = HPRT forward mutation assay; assay type: cell-based; details: concentrations above the compounds MIC's
Excerpt: It is therefore confirmed that the compounds are non-mutagenic to mammalian DNA.

physchem = assay type: physicochemical; details: pH 7.4, aqueous buffer, kinetic from dmso stock
Procedure: Table 12 illustrates the kinetic solubility of complexes 4^2+ and 4^4+ were tested and compared to a soluble positive control drug (Nicardipine). Both compounds passed the DMPK analysis with an optimal solubility and kinetic stability.

CC1(C)S[C@@H]2[C@H](NC(=O)[C@H](N)c3ccccc3)C(=O)N2[C@H]1C(=O)O [ampicillin] gave an MBC ([1]; Escherichia coli, MG1655, GDMM) of 11.4 µM (≈ 3.98 µg/mL), an MBC ([1]; MH-II) of 11.4 µM (≈ 3.98 µg/mL) and an MIC ([2]; Enterococcus faecalis, MH-II) of 0.5 µM (≈ 0.175 µg/mL). For the same molecule, the MBC ([2]; Enterococcus faecalis, GDMM) was 6.3 µM (≈ 2.2 µg/mL), the MIC ([2]; Enterococcus faecalis, GDMM) was 1 µM (≈ 0.349 µg/mL) and the MBC ([2]; MH-II) was 6.3 µM (≈ 2.2 µg/mL).
With Gentamicin the “Minimum Biofilm Eradication Concentration (MBEC)” value (A. baumannii biofilm) was 9 µM, the “Minimum Biofilm Eradication Concentration (MBEC)” value (P. aeruginosa biofilm) was 18 µM and the “Minimum Biofilm Eradication Concentration (MBEC)” value (K. pneumonia biofilm) was 18 µM.
With N.N.[Cl][Pt][Cl] [Cisplatin] the Mutations (HPRT) was 65.5 per 1 × 10^5 viable cells.
In the case of COC(=O)C1=C(C)NC(C)=C(C(=O)OCCN(C)Cc2ccccc2)C1c1cccc([N+](=O)[O-])c1 (stereo not drawn) [Nicardipine], the solubility (physchem) is reported as 20.8 µM (≈ 10 µg/mL) and the solubility (physchem; Solubility) is reported as 20.8 µM (≈ 9.97 µg/mL).
